Results on two compounds are retold here after patent US20200069805A1, “PHARMACEUTICAL COMPOSITIONS WITH SYNCHRONIZED SOLUBILIZER RELEASE” (Lipocine Inc., priority 2003, published 2020).

≈ marks a conversion by molar mass, not a printed value.

For data set [1] the following is noted: cited from earlier work.
Data set [2] can be described thus: Equilibrium aqueous solubility of cilostazol in simulated intestinal fluid with solubilizers. It is filed as physicochemical. As to the method: Solutions of simulated intestinal fluid without enzyme (USP 26, pH 6.8) were prepared over a range of solubilizer concentrations. Excess cilostazol was added and equilibrated with gentle mixing at controlled temperature (37±0.5° C.). The aqueous solutions with excess drug were then filtered ([…] nominal pore size) and the clear filtrate was diluted and assayed by HPLC for cilostazol concentrations.

For data set [3] the following is noted: immediate release tablet dosage form; high fat meal; cited from earlier work.

Regarding `COc1ccccc1OCCNCC(O)COc1cccc2[nH]c3ccccc3c12` (centres unmarked) [Carvedilol], in data set [1], the “equilibrium solubility of the acid addition HCl salt” value is recorded as “about 1 mg/ml”, the pKa result was “about 7.6” and the water solubility entry was “less than 0.001 mg/ml”. Moreover, in data set [1] (low pH, limited by relatively insoluble hydrochloric acid addition salt), the “aqueous solubility at low pH” value was “less than 1 mg/ml”.
On to `O=C1CCc2cc(OCCCCc3nnnn3C3CCCCC3)ccc2N1` [cilostazol], for which the “solubility enhancement of cilostazol” value is about 30% in data set [2] (Cremphor RH40 at 0.05% w/v) and about 5 fold in data set [2] (Cremphor RH40 at 1% w/v). In addition, the “increase in solubility of cilostazol over its intrinsic aqueous solubility” value in data set [2] (d-a-tocopherol polyethylene glycol 1000 succinate at 0.05% w/v) is reported as about 60%; in data set [2] (d-a-tocopherol polyethylene glycol 1000 succinate at 1% w/v) it was about 10 fold. Also, the solubility (in general, how much of the substance goes into solution per volume) in data set [2] (simulated intestinal fluid without enzyme (USP 26), fassgf or other biorelevant, thermodynamic from solid, SIF without enzyme pH 6.8, 37 °C, no solubilizer, read-out: intrinsic solubility of cilostazol) is 6.5 µg/mL (≈ 17.6 µM). Besides, in data set [3], the AUC increase entry is recorded as “about 25%”. Besides, in data set [3], the Cmax increase entry is given as “about 90%”.
